Here are results for two compounds from patent US20250152545A1, “NOVEL ANTIVIRAL COMPOSITIONS COMPRISING OLEIC ACID” (SUBINTRO LIMITED, priority 2021, published 2025).

The structures appear in SMILES notation.

What all share (format): cell-based
For assay [1], the system named is H1N1 (strain A/Switzerland/7717739/2013).
The subject of assay [2] is SARS-COV-2 infected ALI cultured human nasal epithelium. Conditions: apical treatment, apilimod (as mesylate) 2 mg/ml 50 uL; 48 hrs post virus inoculation.
For assay [3], the system named is SARS-COV-2 (strain BetaCoV/France/IDF0571/2020). The experiment in a line: SARS-COV-2 viral load in apical wash of infected ALI cultured human nasal epithelium (RT-PCR). Conditions: apical treatment; apilimod (as mesylate) 2 mg/ml 50 uL and/or surfactants 0.15% w/w polysorbate 80 + 0.2% w/w oleic acid; apical wash 48 hrs post inoculation; MOI 0.1. The text has this:
Primary human nasal, trachea, and bronchial epithelial cells can be cultured and differentiated at an air-liquid interface (ALI), forming a pseudostratified mucociliary airway epithelium that is composed of ciliated cells, goblet cells, club cells, and basal cells with an arrangement closely reflective of an in vivo cellular organization. This in vitro model of human airway epithelium (HAE) cultured at an ALI (HAE-ALI) closely recapitulates many important characteristics of respiratory virus-host cell interactions seen in the infected upper and lower airways in vivo and has been used to study many human respiratory viruses, including SARS-COV-2. […]
Virus load was quantified by RT-PCR as reported by Pizzorno et al. (Cell Rep Med. 1 (4): 100059, 2020). […] Viral RNA will be quantified by RT-qPCR (Express One-Step Superscript™ qRT-PCR kit, Invitrogen). SARS-COV-2-specific primer and probes used for viral genome quantification as follows: Target: ORF1b-nsp14 Forward primer (HKU-ORF1b-nsp14F) 5′-[…]-3′ Reverse primer (HKU-ORF1b-nsp14R) 5′-[…]-3′ Probe (HKU-ORF1b-nsp141P) 5′-FAM-[…]-TAMRA-3′. Ct data were determined and relative changes in gene expression were calculated using the […] and shown as the fold reduction of genome copy number (ORF1b-nsp14 gene of SARS-COV-2) relative to the mean of vehicle treated infected control.

In the case of `CCC(CC)O[C@@H]1C=C(C(=O)O)C[C@H](N)[C@H]1NC(C)=O` [oseltamivir carboxylate], the “reduction of viral load (assay control)” value in assay [1] (10 µM in a basal chamber, Day 0, 24 hrs post inoculation) worked out at 1.7 log. Further, in assay [1] (apical treatment, oseltamivir carboxylate 1 μM and/or surfactants 0.15% polysorbate 80 + 0.2% oleic acid, apical wash 24 hrs post inoculation), the “reduction of viral load (genome copy number) compared with virus infection control” value is 1.0 log.
For `Cc1cccc(/C=N/Nc2cc(N3CCOCC3)nc(OCCc3ccccn3)n2)c1` [apilimod], in assay [2], the “inhibition of virus-induced reduction in TEER” value amounted to 48%. For the same compound, the “reduction of viral load (genome copy number, ORF1b-nsp14) compared with virus infection control” value in assay [3] was 0.1 log.
